Reference: patent US4629733A, “Indolinones and pharmaceutical compositions containing same” (Dr. Karl Thomae GmbH, priority 1980, dated 1986)
pIC50: −log10 of the molar value.

What was measured:
phosphodiesterase (PDE) = assay: PDE inhibition; assay type: biochemical; conditions: 10,000×g supernatant of human blood platelets, 1 μmol/liter 3H-cAMP, pH 7.4, 15 minutes at 37° C.
Method: cAMP is hydrolysed to AMP by phosphodiesterase (PDE) from various sources, including blood platelets. This hydrolysis is inhibited by PDE inhibitors according to the concentration.
The phosphodiesterase used is the 10,000×g supernatant of human blood platelets which have been frozen with water and thawed out again. An amount of 0.3 ml of a mixture which contains 0.1 mol/liter of tri-hydroxy-aminomethane (pH 7.4), 3 mmol/liter of magnesium chloride, 1 mmol/liter of AMP, 1 μmol/liter of ^3 H-cAMP (specific activity about 10 MBq/μmol), PDE as well as the substance to be tested, and water for the control is incubated for 15 minutes at 37° C. The incubation is stopped by the addition of 0.5 ml of zinc sulphate (0.266 mol/liter) and 0.5 ml of barium hydroxide (0.226 mol/liter), the precipitate is centrifuged, and the activity remaining in the supernatant of the unreacted ^3 H-cAMP is determined. From a comparison of the substance preparations and the control preparations, the concentration for a 50% inhibiting activity (IC50) of the respective substance was calculated.

mice = assay: Acute toxicity; assay type: in vivo; conditions: observation time 14 days
Method: The acute toxicity of the substances to be tested was determined in groups of 5 mice each each after peroral administration of a dose of 250 mg/kg or 1000 mg/kg (observation time: 14 days).

conscious mice = assay: Determination of the prolongation of bleeding time; assay type: in vivo; conditions: Mus musculus, po, 1 h, 10 mg/kg orally, after one hour, versus control group
Method: To measure the bleeding time, 10 mg/kg of the test compound is administered orally to conscious mice. After one hour 0.5 mm of the tip of the tail of the mouse is cut off, and the droplets of blood are gently removed with filter paper every 30 seconds. The number of drops of blood give a measure of the bleeding time (5 animals/experiment). The values in the following table represent the prolongation as a percentage as compared to a control group: […]

Row | Structure (SMILES) | pIC50 (phosphodiesterase (PDE)) | Acute toxicity per os (animals died) (mice; 1000 mg/kg peroral) | change in vivo at 10 mg/kg (conscious mice) | Acute toxicity per os (animals died) (mice; 250 mg/kg peroral)
1 | CC1(C)C(=O)Nc2ccc(OCCCC[S+]([O-])c3ccc(Cl)c(Cl)c3)cc21 (stereo not drawn) [B, 3,3-Dimethyl-5-[4-(3,4-dichlorophenylsulfinyl)-butoxy]-indolinone-2] | 6.52 | 0 out of 6 | 59% | –
2 | CC1(C)C(=O)Nc2ccc(OCCCC[S+]([O-])c3ccc4ccccc4c3)cc21 (stereo not drawn) [O, 3,3-Dimethyl-5-[4-(naphthyl-(2)-sulfinyl)-butoxy]-indolinone-2] | 6.96 | 0 out of 6 | 127% | –
3 | CC(C)(C)c1ccc([S+]([O-])CCCCOc2ccc3c(c2)C(C)(C)C(=O)N3)cc1 (stereo not drawn) [K, 3,3-Dimethyl-5-[4-(4-tert.butyl-phenyl-sulfinyl)-butoxy]-indolinone-2] | 6.57 | 0 out of 6 | > 285% | –
4 | CC1(C)C(=O)Nc2ccc(OCCCCC[S+]([O-])c3ccc(C4CCCCC4)cc3)cc21 (stereo not drawn) [Q, 3,3-Dimethyl-5-[5-(4-cyclohexyl-phenyl-sulfinyl)-pentoxy]-indolinone-2] | 6.42 | 0 out of 6 | > 174% | –
5 | CC(C)(C)c1cc([S+]([O-])CCCCOc2ccc3c(c2)C(C)(C)C(=O)N3)cc(C(C)(C)C)c1O (stereo not drawn) [G, 3,3-Dimethyl-5-[4-(3,5-di-tert.butyl-4-hydroxy-phenylsulfinyl)-butoxy]-indolinone-2] | 7.15 | 0 out of 6 | 154% | –
6 | COc1cc2ccc([S+]([O-])CCCCOc3ccc4c(c3)C(C)(C)C(=O)N4)cc2cc1OC (stereo not drawn) [L, 3,3-Dimethyl-5-[4-(6,7-dimethoxy-naphthyl-(2)-sulfinyl)butoxy]-indolinone-2] | 6.62 | 0 out of 6 | 102% | –
7 | CC1(C)C(=O)Nc2ccc(OCCCCSc3cc(Cl)c(O)c(Cl)c3)cc21 [M, 3,3-Dimethyl-5-[4-(3,5-dichloro-4-hydroxy-phenyl-mercapto)-butoxy]-indolinone-2] | – | 0 out of 6 | 140% | –
8 | CC1(C)C(=O)Nc2ccc(OCCCC[S+]([O-])c3ccc(C4CCCCC4)cc3)cc21 (stereo not drawn) [S, 3,3-Dimethyl-5-[4-(4-cyclohexyl-phenyl-sulfinyl)-butoxy]-indolinone-2] | 7.24 | 0 out of 6 | 104% | –
9 | CC1(C)C(=O)Nc2ccc(OCCCC[S+]([O-])c3ccccc3)cc21 (stereo not drawn) [A, 3,3-Dimethyl-5-(4-phenylsulfinyl-butoxy)-indolinone-2] | 5.60 | – | – | 0 out of 5
10 | CC1(C)C(=O)Nc2ccc(OCCCC[S+]([O-])c3cc(Br)c(N)c(Br)c3)cc21 (stereo not drawn) [N, 3,3-Dimethyl-5-[4-(3,5-dibromo-4-amino-phenyl-sulfinyl)butoxy]-indolinone-2] | 6.96 | 0 out of 6 | > 254% | –
11 | CC(C)(C)c1ccc(S(=O)(=O)CCCCOc2ccc3c(c2)C(C)(C)C(=O)N3)cc1 [R, 3,3-Dimethyl-5-[4-(4-tert.butyl-phenyl-sulfonyl)-butoxy]-indolinone-2] | 6.62 | 0 out of 6 | > 242% | –
12 | COc1ccc([S+]([O-])CCCCOc2ccc3c(c2)C(C)(C)C(=O)N3)cc1 (stereo not drawn) [I, 3,3-Dimethyl-5-[4-(4-methoxyphenyl-sulfinyl)-butoxy]-indolinone-2] | 6.30 | 0 out of 6 | > 214% | –
13 | CC1(C)C(=O)Nc2ccc(OCCCC[S+]([O-])c3ccc(-c4ccccc4F)cc3)cc21 (stereo not drawn) [D, 3,3-Dimethyl-5-[4-(2'-fluoro-4-biphenylylsulfinyl)-butoxy]-indolinone-2] | 7.57 | 0 out of 6 | > 249% | –
14 | COc1ccc([S+]([O-])CCCCOc2ccc3c(c2)C(C)(C)C(=O)N3)cc1OC (stereo not drawn) [E, 3,3-Dimethyl-5-[4-(3,4-dimethoxyphenylsulfinyl)-butoxy]-indolinone-2] | 6.27 | 0 out of 6 | > 198% | –
15 | CC1(C)C(=O)Nc2ccc(OCCCCSc3ccc(C4CCCCC4)cc3)cc21 [C, 3,3-Dimethyl-5-[4-(4-cyclohexylphenylmercapto)-butoxy]-indolinone-2] | 5.60 | 0 out of 6 | – | –
16 | CC1(C)C(=O)Nc2ccc(OCCCC[S+]([O-])c3ccc(Cl)cc3)cc21 (stereo not drawn) [P, 3,3-Dimethyl-5-[4-(4-chlorophenylsulfinyl)-butoxy]-indolinone-2] | 6.44 | 0 out of 6 | 114% | –
17 | COc1cc2ccc(S(=O)(=O)CCCCOc3ccc4c(c3)C(C)(C)C(=O)N4)cc2cc1OC [F, 3,3-Dimethyl-5-[4-(6,7-dimethoxy-naphthyl-(2)-sulfonyl)butoxy]-indolinone-2] | 6.62 | 0 out of 6 | > 232% | –
18 | CC(C)(C)c1cc(S(=O)(=O)CCCCOc2ccc3c(c2)C(C)(C)C(=O)N3)cc(C(C)(C)C)c1O [H, 3,3-Dimethyl-5-[4-(3,5-di-tert.butyl-4-hydroxy-phenylsulfonyl)-butoxy]-indolinone-2] | 7.23 | 0 out of 6 | 149% | –
